Target: T1, AMPK beta 1 (Homo sapiens, UniProt Q13131+Q9Y478)
T1 construct: in-cell-ELISA for phospho-ACC (Acetyl-CoA carboxylase 1) in HepG2 cells (liver); endogenous in cells; host or cells: HepG2 (assignment to the beta 1 column inferred)
Test: in-cell-ELISA for phospho-ACC: activation of AMPK, beta 1 (HepG2 cells / C2C12 myotubes)
Format: cell-based
Details: 2 h, percentage activation over vehicle control; for activation at 3 µM / activation at 10 µM / activation at 1 µM: read-out: Percentage activation of beta 1 at given concentration
Experimental: Activation of AMPK by various compounds were measured using in-cell-ELISA for phospho-ACC (Acetyl-CoA carboxylase 1) in HepG2 cells (liver) and fully differentiated myotubes (C2C12 cells) grown in 96 well plate. Cells were treated with 1 μM, 3 μM or 10 μM of the molecule (Example) for 2 h in serum free DMEM media. After methanol fixation, cells were blocked with BSA followed by addition of anti-phospho ACC antibody (Cell Signaling) and HRP conjugated secondary antibody. Absorbance values taken at 450 nm were normalized with total DNA (Hoechest stain). Results were expressed as percentage activation over vehicle control.
Percentage activation at compound (Example) concentration of 1, 3 or 10 μM for compounds according to the invention are shown in the following table. The number of the compound corresponds to the number of the Example (Ex) in the experimental section.

T1 sequence (Q9Y478 2-270 limits assumed): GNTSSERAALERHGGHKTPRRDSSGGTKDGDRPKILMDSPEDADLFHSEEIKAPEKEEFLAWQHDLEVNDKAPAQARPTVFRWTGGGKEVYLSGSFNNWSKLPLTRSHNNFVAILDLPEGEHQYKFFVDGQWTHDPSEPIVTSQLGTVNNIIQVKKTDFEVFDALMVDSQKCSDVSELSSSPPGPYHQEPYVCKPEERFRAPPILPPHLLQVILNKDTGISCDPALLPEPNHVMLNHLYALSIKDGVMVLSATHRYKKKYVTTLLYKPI
T1 sequence (Q13131 whole entry): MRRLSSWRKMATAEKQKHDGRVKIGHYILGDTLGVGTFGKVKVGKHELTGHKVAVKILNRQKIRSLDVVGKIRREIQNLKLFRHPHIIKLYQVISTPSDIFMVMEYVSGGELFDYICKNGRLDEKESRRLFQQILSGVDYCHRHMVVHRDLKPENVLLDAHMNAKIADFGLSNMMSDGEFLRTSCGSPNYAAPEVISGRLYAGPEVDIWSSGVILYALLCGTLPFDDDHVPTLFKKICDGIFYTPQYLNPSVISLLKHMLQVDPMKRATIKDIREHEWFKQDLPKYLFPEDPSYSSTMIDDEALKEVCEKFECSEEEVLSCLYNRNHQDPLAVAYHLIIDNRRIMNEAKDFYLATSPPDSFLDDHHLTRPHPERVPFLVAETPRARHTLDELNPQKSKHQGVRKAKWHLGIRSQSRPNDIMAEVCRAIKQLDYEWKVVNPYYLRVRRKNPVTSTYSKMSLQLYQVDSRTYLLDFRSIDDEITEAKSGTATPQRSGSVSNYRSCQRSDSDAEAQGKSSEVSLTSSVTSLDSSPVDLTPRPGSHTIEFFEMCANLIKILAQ
T1 sequence (P54619 whole entry partner): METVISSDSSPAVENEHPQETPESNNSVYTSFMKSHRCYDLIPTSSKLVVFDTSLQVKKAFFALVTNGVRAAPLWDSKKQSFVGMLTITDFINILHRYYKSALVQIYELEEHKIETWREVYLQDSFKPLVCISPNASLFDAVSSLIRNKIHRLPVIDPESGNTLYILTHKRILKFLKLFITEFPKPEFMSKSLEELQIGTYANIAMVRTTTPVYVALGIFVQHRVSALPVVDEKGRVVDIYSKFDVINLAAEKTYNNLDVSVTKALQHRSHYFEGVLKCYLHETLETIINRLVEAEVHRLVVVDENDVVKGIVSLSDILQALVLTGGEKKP

| activation at 3 µM (3 μM) [%] | activation at 10 µM (10 μM) [%] | SMILES | other results |
| --- | --- | --- | --- |
| 99 |  | CCN1C(=O)C2(CC2c2ccc(OC)c(C(=O)O)c2)c2cc(-c3ccc(-c4ccncc4)cc3)c(Cl)cc21 (stereo not drawn) [Example 106] |  |
| 55 |  | Cc1ccc(C2CC23C(=O)Nc2cc(F)c(-c4ccc(-c5ccncc5)cc4)cc23)cc1C(=O)O (stereo not drawn) [Example 81] |  |
|  | 10 | Cc1ccc(C2CC23C(=O)Nc2cc(Cl)c(S(=O)(=O)NC4CCC4)cc23)cc1C(=O)O (stereo not drawn) [Example 91] |  |
|  |  | Cc1ccc(C2CC23C(=O)Nc2cc(Cl)c(-c4ccc(C5(CO)CC5)cc4)cc23)cc1C(=O)O (stereo not drawn) [Example 45] | Percentage activation of beta 1 at given concentration (10 μM): 80% at 10 μM |
|  | 23 | COc1ccc(C2CC23C(=O)Nc2cc(Cl)c(-c4ccc(-c5ccncc5)cc4)cc23)cc1C(=O)O (stereo not drawn) [Example 73] |  |
|  |  | Cc1ccc(C2CC23C(=O)Nc2c(F)cc(-c4ccc(-c5ccc(-n6cncn6)cc5)cc4)cc23)cc1C(=O)O (stereo not drawn) [Example 155] | activation at 1 µM (1 μM): 28% |
|  |  | CC(C)(C(=O)O)c1ccc(C2CC23C(=O)Nc2cc(F)c(-c4ccc(-c5ccc(-n6cncn6)cc5)cc4)cc23)cc1 (stereo not drawn) [Example 161] | Percentage activation of beta 1 at given concentration (1 μM): 115% at 1 μM |
| 68 |  | CC(C)c1ccc(C2CC23C(=O)Nc2cc(Cl)c(-c4ccc(N5CCC[C@@H]5CO)cc4)cc23)cc1C(=O)O (stereo partly drawn) [Example 50] |  |
|  |  | Cc1ccc(C2CC23C(=O)Nc2cc(F)c(-c4ccc(-c5ccc6c(cnn6C)c5)cc4)cc23)cc1C(=O)O (stereo not drawn) [Example 160] | activation at 1 µM (1 μM): 11% |
| 73 |  | O=C(O)Cc1cccc(C2CC23C(=O)Nc2cc(Cl)c(-c4ccc(-c5ccccc5O)cc4)cc23)c1 (stereo not drawn) [Example 26] |  |
|  | 51 | CCN1C(=O)C2(CC2c2ccc(C)c(CC(=O)O)c2)c2cc(-c3ccc(-c4ccncc4)cc3)c(Cl)cc21 (stereo not drawn) [Example 113] |  |
|  | 72 | Cc1ccc(C2CC23C(=O)Nc2cc(Cl)c(-c4ccc5c(ccn5CCO)c4)cc23)cc1C(=O)O (stereo not drawn) [Example 47] |  |
| 134 |  | Cc1ccc(C2CC23C(=O)N(C)c2cc(Cl)c(-c4ccc(-c5ccncc5)cc4)cc23)cc1C(=O)O (stereo not drawn) [Example 100] |  |
|  | 176 | Cc1ccc(C2CC23C(=O)N(C)c2cc(F)c(-c4ccc(-c5ccccc5O)cc4)cc23)cc1C(=O)O (stereo not drawn) [Example 15] |  |
| 47 |  | CC(C)c1ccc(C2CC23C(=O)Nc2cc(Cl)c(-c4ccc(-c5ccc(-n6cncn6)cc5)cc4)cc23)cc1C(=O)O (stereo not drawn) [Example 131] |  |
|  | 40 | Cc1ccc(C2CC23C(=O)Nc2cc(Cl)c(-c4ccc(O)cc4)cc23)cc1C(=O)O (stereo not drawn) [Example 29] |  |
|  | 51 | Cc1ccc(C2CC23C(=O)Nc2cc(Cl)c(-c4ccc5cc[nH]c5c4)cc23)cc1C(=O)O (stereo not drawn) [Example 93] |  |
|  | 166 | Cc1ccc(C2CC23C(=O)Nc2cc(F)c(-c4ccc(-c5ccccc5O)cc4)cc23)cc1CC(=O)O (stereo not drawn) [Example 3] |  |
| 64 |  | COc1ccc(C2CC23C(=O)Nc2cc(F)c(-c4ccc(-c5ccccc5O)cc4)cc23)cc1C(=O)O (stereo not drawn) [Example 11] |  |

| activation at 3 µM (3 μM) [%] | activation at 10 µM (10 μM) [%] | SMILES | other results |
| --- | --- | --- | --- |
|  | 102 | O=C(O)c1cccc(C2CC23C(=O)Nc2cc(F)c(-c4ccc(-c5ccccc5O)cc4)cc23)c1 (stereo not drawn) [Example 1] |  |
|  | 92 | Cc1ccc(C2CC23C(=O)Nc2cc(Cl)c(-c4ccc(-c5ccncc5)cc4)nc23)cc1C(=O)O (stereo not drawn) [Example 83] |  |
| 36 |  | Cc1ccc(C2CC23C(=O)Nc2cc(Cl)c(-c4ccc(-c5ccc(-n6cncn6)cc5)cc4)cc23)cc1CO (stereo not drawn) [Example 184] |  |
|  | 40 | Cc1ccc(C2CC23C(=O)Nc2cc(Cl)c(-c4ccc(N5CCOCC5)c(F)c4)cc23)cc1C(=O)O (stereo not drawn) [Example 71] |  |
|  | 23 | Cc1ccc(C2CC23C(=O)Nc2cc(F)c(-c4ccc(-c5ccccc5O)cn4)cc23)cc1C(=O)O (stereo not drawn) [Example 9] |  |
|  |  | O=C(O)Cc1cccc(C2CC23C(=O)Nc2cc(Cl)c(-c4ccc(-c5ccccc5O)cn4)cc23)c1 (stereo not drawn) [Example 16] | Percentage activation of beta 1 at given concentration (10 μM): 23% at 10 μM |
| 48 |  | CC(C)(C(=O)O)c1ccc(C2CC23C(=O)Nc2cc(Cl)c(-c4ccc(-c5ccc(-n6cncn6)cc5)cc4)cc23)cc1 (stereo not drawn) [Example 137] |  |
|  | 16 | Cc1ccc(C2CC23C(=O)Nc2cc(Cl)c(S(=O)(=O)Nc4ccccc4O)cc23)cc1C(=O)O (stereo not drawn) [Example 92] |  |
| 80 |  | Cc1ccc(C2CC23C(=O)Nc2cc(Cl)c(-c4ccc(-c5ccncc5)c(F)c4)cc23)cc1C(=O)O (stereo not drawn) [Example 67] |  |
| 83 |  | Cc1ccc(C2CC23C(=O)N(CC2CC2)c2cc(Cl)c(-c4ccc(-c5ccncc5)cc4)cc23)cc1C(=O)O (stereo not drawn) [Example 109] |  |
| 71 |  | O=C(O)Cc1ccc(C2CC23C(=O)Nc2cc(Cl)c(-c4ccc(-c5ccc(-n6cncn6)cc5)cc4)cc23)cc1 (stereo not drawn) [Example 127] |  |
| 42 |  | Cc1ccc(C2CC23C(=O)Nc2cc(Cl)c(-c4ccc(-c5ccncc5)cc4)cc23)cc1C(=O)O (stereo not drawn) [Example 59] |  |
|  |  | Cc1ccc(C2CC23C(=O)Nc2cc(Cl)c(-c4ccc(-c5ccc(-n6cncn6)cc5)cc4)cc23)cc1C(=O)O (stereo not drawn) [Example 117] | Percentage activation of beta 1 at given concentration (1 μM): 165% at 1 μM |
| 62 |  | Cc1ccc(C2CC23C(=O)Nc2cc(Cl)c(-c4ccc(-n5cccn5)cc4)cc23)cc1C(=O)O (stereo not drawn) [Example 166] |  |
| 39 |  | O=C(O)c1ccc(C2CC23C(=O)Nc2cc(Cl)c(-c4ccc(-c5ccccc5O)cc4)cc23)cc1 (stereo not drawn) [Example 32] |  |
| 99 |  | Cc1ccc(C2CC23C(=O)Nc2cc(Cl)c(-c4ccc(-c5ncccc5O)cc4)cc23)cc1C(=O)O (stereo not drawn) [Example 20] |  |
|  |  | Cc1ccc(C2CC23C(=O)Nc2cc(Cl)c(-c4ccc(-c5ccc(-n6cncn6)cc5)cc4)cc23)cc1CO (stereo not drawn) [Example 185] | Percentage activation of beta 1 at given concentration (3 μM): 34% at 3 μM |
| 104 |  | Cc1ccc(C2CC23C(=O)Nc2cc(Cl)c(-c4ccc(-c5ccccc5O)cc4)cc23)cc1C(=O)O (stereo not drawn) [Example 28] |  |
| 30 |  | CN1C(=O)C2(CC2c2ccc(C(C)(C)C(=O)O)cc2)c2cc(-c3ccc(-c4ccncc4)cc3)c(Cl)cc21 (stereo not drawn) [Example 112] |  |

| activation at 3 µM (3 μM) [%] | activation at 10 µM (10 μM) [%] | SMILES | other results |
| --- | --- | --- | --- |
|  | 89 | Cc1ccc(C2CC23C(=O)Nc2cc(F)c(-c4ccc(N5CCOCC5)cc4)cc23)cc1C(=O)O (stereo not drawn) [Example 57] |  |
|  | 112 | Cc1ccc(C2CC23C(=O)Nc2cc(Cl)c(C#Cc4ccncc4)cc23)cc1C(=O)O (stereo not drawn) [Example 79] |  |
| 91 |  | COc1ccc(C2CC23C(=O)Nc2cc(Cl)c(-c4ccc(-c5ccc(-n6cccn6)cc5)cc4)cc23)cc1C(=O)O (stereo not drawn) [Example 121] |  |
| 58 |  | CCN1C(=O)C2(CC2c2ccc(OC)c(CC(=O)O)c2)c2cc(-c3ccc(-c4ccncc4)cc3)c(Cl)cc21 (stereo not drawn) [Example 110] |  |
|  | 132 | CN(C)c1cc(-c2ccc(-c3cc4c(cc3Cl)NC(=O)C43CC3c3cccc(CC(=O)O)c3)cc2)ccn1 (stereo not drawn) [Example 88] |  |
|  |  | Cc1ccc(C2CC23C(=O)Nc2c3cc(-c3ccc(-c4ccc(-n5cccn5)cc4)cc3)c(Cl)c2Cl)cc1C(=O)O (stereo not drawn) [Example 153] | activation at 1 µM (1 μM): 10% |
|  |  | Cc1ccc(C2CC23C(=O)Nc2cc(Cl)c(-c4ccc(-c5ccncc5)cc4)cc23)cc1CC(=O)O (stereo not drawn) [Example 63] | activation at 1 µM (1 μM): 42% |
| 104 |  | Cc1ccc(C2CC23C(=O)Nc2cc(F)c(-c4ccc(-c5ccc(-n6cccn6)cc5)cc4)cc23)cc1C(=O)O (stereo not drawn) [Example 141] |  |
|  | 137 | Cc1ccc(C2CC23C(=O)Nc2cc(Cl)c(-c4ccc5[nH]ccc5c4)cc23)cc1C(=O)O (stereo not drawn) [Example 94] |  |
| 19 |  | Cc1ccc(C2CC23C(=O)Nc2cc(Cl)c(-c4ccc(-c5ccc(-c6nnn[nH]6)cc5)cc4)cc23)cc1C(=O)O (stereo not drawn) [Example 136] |  |
|  | 75 | COc1ccc(C2CC23C(=O)Nc2cc(F)c(-c4ccc(-c5ccncc5)cc4)cc23)cc1C(=O)O (stereo not drawn) [Example 84] |  |
| 68 |  | O=C(O)Cc1cccc(C2CC23C(=O)Nc2cc(F)c(-c4ccc(-c5ccccc5O)cc4)cc23)c1 (stereo not drawn) [Example 31] |  |
| 21 |  | Cc1ccc(C2CC23C(=O)Nc2cc(Cl)c(-c4ccc(-c5ccc(-n6cnnn6)cc5)cc4)cc23)cc1C(=O)O (stereo not drawn) [Example 140] |  |
| 66 |  | COCN1C(=O)C2(CC2c2ccc(C)c(C(=O)O)c2)c2cc(-c3ccc(-c4ccncc4)cc3)c(Cl)cc21 (stereo not drawn) [Example 99] |  |
|  | 40 | COc1ccc(C2CC23C(=O)Nc2cc(F)c(-c4ccc(-c5ccccc5O)cc4)cc23)cc1C(=O)O (stereo not drawn) [Example 10] |  |
| 43 |  | Cn1cc(C2CC23C(=O)Nc2cc(Cl)c(-c4ccc(-c5ccccc5O)cc4)cc23)cc1C(=O)O (stereo not drawn) [Example 43] |  |
| 15 |  | O=C(O)Cc1cccc(C2CC23C(=O)Nc2cc(Cl)c(-c4ccc(-c5ccc(-n6cncn6)cc5)cc4)cc23)c1 (stereo not drawn) [Example 129] |  |
| 47 |  | Cc1ccc(C2CC23C(=O)Nc2cc(Cl)c(-c4ccc(-c5ccccc5C(C)(C)O)cc4)cc23)cc1C(=O)O (stereo not drawn) [Example 53] |  |
|  |  | Cc1ccc(C2CC23C(=O)Nc2cc(F)c(-c4ccc(-c5ccc(-n6cncn6)cc5)cc4)cc23)cc1C(=O)O (stereo not drawn) [Example 148] | Percentage activation of beta 1 at given concentration (1 μM): 127% at 1 μM |
